Laboratory results taken from PMC9007350, “Aurintricarboxylic acid is a canonical disruptor of the TAZ-TEAD transcriptional complex” (PLoS ONE, 2022).

Key:
[1] = tested on: CYR61, CTGF, AMOTL2 and ANKRD1 transcripts in TC-expressing NIH3T3 cells; assay: qPCR of canonical TAZ target genes; format: cell-based, murine; details: ATA 10 μM, 48 h
Experimental: NIH3T3 and HEK293 cells were obtained from the American Type Tissue Collection (ATCC, Manassas, VA) and cultured in DMEM containing 10% fetal bovine serum and penicillin/streptomycin. A TEAD dual luciferase reporter assay was performed as previously described. Cells were treated with vehicle control or ATA (10 μM) for 48 h before measuring the luciferase activity or processing the samples for RNA extraction. Each experiment was repeated at least 2-3 times. NIH3T3 cells were used. The extracted RNA (RNeasy Mini, Qiagen) from treated cells was either used for qPCR measurements or sent for bulk RNA-Seq. Sequencing runs were performed on an Illumina HiSeq 4000 sequencer (Genewiz). […] Paired end reads were aligned to the murine genome ([…]2 [27]. Raw count files were generated with featureCounts using a corresponding GTF reference. Differential gene expression analysis was performed with DESeq2 [29]. Transcripts were considered to be differentially expressed if the false discovery rate < 0.05 and Log2FC > 2. When performing differential gene expression for GSEA analysis, the Limma package was used (<5 CPM filtering) with t-scores used for rank statistics. GSEA plots and statistics were generated with FGSEA with custom gene sets. Raw sequencing reads and processed files have been deposited in the GEO repository (data will be uploaded upon manuscript acceptance). […]

[2] = target: T1, VGLL1-TEAD complex (mouse Vgll1 (26-51) probe, human TEAD4 (217-434)) (Homo sapiens, UniProt Q15561); assay: Vgll1-TEAD fluorescence polarization assay; format: binding; details: TEAD4 350 nM, Vgll1 probe 25 nM
T1 construct: made in house
Experimental: Human YAP (61–100), human TAZ (23–57) and mouse Vgll1 (26–51) peptide probes were used; all the probes had carboxyfluorescein labels. Human TEAD4 (217–434) was used in the assay at a concentration of 350 nM and the peptide probe concentration was 25 nM. Disruptors were titrated at concentrations ranging from 0–150 μM to the probe-TEAD complex, and the mixtures were incubated at 25°C for 20 min. Then, polarization measurements were taken using a Victor3 (PerkinElmer) plate reader.

T1 sequence (Q15561 217-434, one chain of several): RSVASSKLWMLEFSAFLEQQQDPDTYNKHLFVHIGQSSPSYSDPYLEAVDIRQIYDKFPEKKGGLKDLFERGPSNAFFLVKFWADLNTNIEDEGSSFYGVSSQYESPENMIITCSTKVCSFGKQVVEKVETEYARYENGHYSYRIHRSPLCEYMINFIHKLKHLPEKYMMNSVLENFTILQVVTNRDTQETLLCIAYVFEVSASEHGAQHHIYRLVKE

## O=C(O)C1=CC(=C(c2ccc(O)c(C(=O)O)c2)c2ccc(O)c(C(=O)O)c2)C=CC1=O [ATA, aurintricarboxylic acid]
[1]
  transcripts of canonical TAZ target genes (CYR61, CTGF, AMOTL2, ANKRD1) by qPCR: suppression of these transcripts
[2]
  disruption of the VGLL1-TEAD interaction (in words): ineffective
